According to US11958861B2, “Spirocyclic lactams as JAK2 V617F inhibitors” (Incyte Corporation, priority 2021, dated 2024):
Counter-ions that a name gives are not always drawn.

Legend:
[1] = molecular target: T1, pseudo-kinase domain (JH2, amino-acids 536-812) of human V617F mutant JAK2 (Homo sapiens, UniProt O60674, F794H/V617F/W659A/W777A); test: JAK2 LanthaScreen JH2-V617F Binding Assay; conditions: 1 hour at 25° C.
T1 construct: pseudo-kinase domain (JH2, amino-acids 536-812 with 3 surface mutations W659A, W777A, F794H); purchased BPS Bioscience 79498; host or cells: baculovirus expression system
Description: Example C. JAK2 LanthaScreen JH2-V617F Binding Assay
(§1) JAK2 JH2-V617F binding assay utilizes pseudo-kinase domain (JH2, amino-acids 536-812 with 3 surface mutations W659A, W777A, F794H) of human V617F mutant JAK2 expressed as C-terminal His-Avi-tagged, biotinylated protein in a baculovirus expression system (BPS Bioscience, Catalog #79498). The assay was conducted in black 384-well polystyrene plates in a final reaction volume of 20 μL. JAK2 JH2-V617F (0.26 nM) was incubated with compounds (100 nL serially diluted in DMSO) in the presence of 50 nM Fluorescent JAK2-JH2 Tracer (MedChem Express Catalog #HY-102055) and 0.25 nM Streptavidin-Tb cryptate (Cisbio Part #610SATLB) in assay buffer (50 mM Tris, pH=7.5, 10 mM MgCl2, 0.01% Brij-35, 0.1% BSA, 1 mM EGTA, 5% Glycerol and 5 mM DTT). Non-specific binding was accessed in the presence of 2 mM ATP. After incubation for 1 hour at 25° C., LanthaScreen signals were read on a PHERAstar FS plate reader (BMG LABTECH). Data was analyzed with IDBS XLfit and GraphPad Prism 5.0 software using a four parameter dose response curve to determine IC50 for each compound.

[2] = molecular target: T2, catalytic domain (JH1, amino acids 808-1132) of human JAK2 (Homo sapiens, UniProt O60674); test: JAK2 HTRF Enzyme Activity Assay; assay type: biochemical; conditions: ATP 30 μM, read-out: ENZ 30UMATP
T2 construct: catalytic domain (JH1, amino acids 808-1132) of human JAK2; His (N); purchased BPS Bioscience 40450; host or cells: baculovirus expression system
Description: Example D. JAK2 HTRF Enzyme Activity Assay
JAK2 enzyme activity assays utilize catalytic domain (JH1, amino acids 808-1132) of human JAK2 expressed as N-terminal His-tagged protein in a baculovirus expression system (BPS Bioscience, Catalog #40450). The assays was conducted in black 384-well polystyrene plates in a final reaction volume of 20 μL. JAK2 (0.015 nM) was incubated with compounds (100 nL serially diluted in DMSO) in the presence of ATP (30 μM or 1 mM) and 500 nM Biotin-labeled […] (SEQ ID NO.: 1) peptide (BioSource International, custom synthesis) in assay buffer (50 mM Tris, pH=7.5, 10 mM MgCl2, 0.01% Brij-35, 0.1% BSA, 1 mM EGTA, 5% Glycerol and 5 mM DTT) for 60 minutes at 25° C. The reactions were stopped by the addition of 10 μL of detection buffer (50 mM Tris, pH 7.8, 0.5 mg/mL BSA, 150 mM NaCl), supplemented with EDTA, LANCE Eu-W1024 anti-phosphotyrosine (PY20), (PerkinElmer, Catalog #AD0067) and Streptavidin SureLight APC (PerkinElmer Catalog #CR130-100), for a final concentration of 15 mM, 1.5 nM and 75 nM, respectively. HTRF signals were read after 30 minutes incubation at room temperature on a PHERAstar FS plate reader (BMG LABTECH). Data was analyzed with IDBS XLfit and GraphPad Prism 5.0 software using a four parameter dose response curve to determine IC50 for each compound.

[3] = molecular target: T3, catalytic domain (JH1, amino acids 826-1132) of human JAK2 (Homo sapiens, UniProt O60674); test: JAK2 LanthaScreen JH1 Binding Assay; conditions: 2 hours at 25° C.
T3 construct: catalytic domain (JH1, amino acids 826-1132) of human JAK2; purchased Carna Biosciences 08-445-20N; host or cells: baculovirus expression system
Description: Example A. JAK2 LanthaScreen JH1 Binding Assay
JAK2 JH1 binding assay utilizes catalytic domain (JH1, amino acids 826-1132) of human JAK2 expressed as N-terminal FLAG-tagged, biotinylated protein in a baculovirus expression system (Carna Biosciences, Product #08-445-20N). The assay was conducted in black 384-well polystyrene plates in a final reaction volume of 20 μL. JAK2 JH1 (1.5 nM) was incubated with compounds (100 nL serially diluted in DMSO) in the presence of 50 nM Fluorescent JAK2-JH1 Tracer and 0.5 nM Streptavidin-Tb cryptate (Cisbio Part #610SATLB) in assay buffer (50 mM Tris, pH=7.5, 10 mM MgCl2, 0.01% Brij-35, 0.1% BSA, 1 mM EGTA, 5% Glycerol and 5 mM DTT). Non-specific binding was accessed in the presence of 2 mM ATP. After incubation for 2 hours at 25° C., LanthaScreen signals were read on a PHERAstar FS plate reader (BMG LABTECH). Data was analyzed with IDBS XLfit and GraphPad Prism 5.0 software using a four parameter dose response curve to determine IC50 for each compound.

[4] = molecular target: T4, pseudo-kinase domain (JH2, amino-acids 536-812) of human Wild Type JAK2 (Homo sapiens, UniProt O60674, F794H/W659A/W777A); test: JAK2 LanthaScreen JH2-WT Binding Assay; conditions: 1 hour at 25° C.
T4 construct: pseudo-kinase domain (JH2, amino-acids 536-812 with 3 surface mutations W659A, W777A, F794H); purchased BPS Bioscience 79463; host or cells: baculovirus expression system
Description: Example B. JAK2 LanthaScreen JH2-WT Binding Assay
as §1, with “JH2-WT” for “JH2-V617F”, “Wild Type” for “V617F mutant”, “#79463).” for “#79498).”, “JH2-WT (0.145” for “JH2-V617F (0.26”

T1 sequence (O60674 536-812 V617F/W659A/W777A/F794H): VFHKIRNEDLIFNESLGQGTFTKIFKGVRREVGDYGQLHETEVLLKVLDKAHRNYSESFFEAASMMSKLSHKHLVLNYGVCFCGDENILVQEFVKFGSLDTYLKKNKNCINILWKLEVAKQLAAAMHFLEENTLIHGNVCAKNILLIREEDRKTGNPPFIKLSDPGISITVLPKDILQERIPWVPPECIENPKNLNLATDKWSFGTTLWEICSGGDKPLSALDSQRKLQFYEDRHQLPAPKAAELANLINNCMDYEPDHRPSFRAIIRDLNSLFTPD
T4 sequence (O60674 536-812 W659A/W777A/F794H): as the sequence (O60674 536-812 V617F/W659A/W777A/F794H) above, with F82V counted along it
T3 sequence (O60674 826-1132): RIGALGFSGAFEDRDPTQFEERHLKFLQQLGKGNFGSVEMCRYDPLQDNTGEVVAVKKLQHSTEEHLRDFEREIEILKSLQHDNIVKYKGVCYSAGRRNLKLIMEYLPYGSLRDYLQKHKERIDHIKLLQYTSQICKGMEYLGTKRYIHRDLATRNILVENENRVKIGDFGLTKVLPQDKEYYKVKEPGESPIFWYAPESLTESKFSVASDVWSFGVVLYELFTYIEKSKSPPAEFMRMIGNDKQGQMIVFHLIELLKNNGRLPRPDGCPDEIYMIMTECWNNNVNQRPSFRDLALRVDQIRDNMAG
T2 sequence (O60674 808-1132): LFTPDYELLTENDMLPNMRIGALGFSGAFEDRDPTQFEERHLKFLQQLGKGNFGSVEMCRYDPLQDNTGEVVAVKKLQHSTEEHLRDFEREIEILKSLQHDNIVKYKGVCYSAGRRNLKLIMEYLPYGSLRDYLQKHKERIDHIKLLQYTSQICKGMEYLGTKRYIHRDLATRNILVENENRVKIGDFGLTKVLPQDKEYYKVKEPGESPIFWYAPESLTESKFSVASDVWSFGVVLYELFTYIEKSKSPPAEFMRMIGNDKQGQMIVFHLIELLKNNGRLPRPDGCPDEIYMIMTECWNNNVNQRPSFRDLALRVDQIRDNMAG

Row | Compound | IC50 [1] | IC50 [2] | IC50 [3] | IC50 [4]
1 | CN1C(=O)C2(CCN(C(C(N)=O)c3ccc(F)cc3)CC2)c2c1cnc1[nH]c(-c3cnn(C)c3)c(-c3ccccc3)c21 (racemic) [Example 26, 2-(4-Fluorophenyl)-2-(6-methyl-2-(1-methyl-1H-pyrazol-4-yl)-7-oxo-1-phenyl-6,7-dihydro-3H-spiro[dipyrrolo[2,3-b:3′,2′-d]pyridine-8,4′-piperidin]-1′-yl)acetamide, trifluoroacetate salt] | ≤ 100 nM | ≤ 100 nM | 100 to 500 nM | ≤ 100 nM
2 | CN1C(=O)C2(CCN(C3(CC#N)CCC3)CC2)c2c1cnc1[nH]c(C3=CCC(C(=O)N4CCOCC4)CC3)c(-c3ccc4c(cnn4C)c3)c21 (racemic) [Example 34, 2-(1-(6-Methyl-1-(1-methyl-1H-indazol-5-yl)-2-(4-(morpholine-4-carbonyl)cyclohex-1-en-1-yl)-7-oxo-6,7-dihydro-3H-spiro[dipyrrolo[2,3-b:3′,2′-d]pyridine-8,4′-piperidin]-1′-yl)cyclobutyl)acetonitrile, trifluoroacetate salt] | ≤ 100 nM | 500 to 1250 nM | 500 to 1250 nM | ≤ 100 nM
3 | CN1C(=O)C2(CCN(C3(CC#N)CCC3)CC2)c2c1cnc1[nH]c(-c3cnn(C4CCOC4)c3)c(-c3ccc4c(cnn4C)c3)c21 (racemic) [Example 45, 2-(1-(6-Methyl-1-(1-methyl-1H-indazol-5-yl)-7-oxo-2-(1-(tetrahydrofuran-3-yl)-1H-pyrazol-4-yl)-6,7-dihydro-3H-spiro[dipyrrolo[2,3-b:3′,2′-d]pyridine-8,4′-piperidin]-1′-yl)cyclobutyl)acetonitrile, trifluoroacetate salt] | ≤ 100 nM | ≤ 100 nM | 100 to 500 nM | ≤ 100 nM
4 | CN1C(=O)[C@]2(CC[C@@H](NS(=O)(=O)C3CC3)C2)c2c1cnc1[nH]c(-c3cnn(C)c3)c(-c3ccc4c(cnn4C)c3)c21 (racemic) [Example 55, trifluoroacetate salt] | ≤ 100 nM | 500 to 1250 nM | 1250 to 2500 nM | ≤ 100 nM
5 | [2H]C([2H])([2H])n1ncc2cc(-c3c(-c4cnn(C)c4)[nH]c4ncc5c(c34)[C@@]3(CC[C@H](NS(=O)(=O)C4CC4)C3)C(=O)N5C)ccc21 (racemic) [Example 56, trifluoroacetate salt] | ≤ 100 nM | 1250 to 2500 nM | 1250 to 2500 nM | ≤ 100 nM
6 | CCCC(=O)N1CCC2(CC1)CC1(C2)C(=O)N(C)c2cnc3[nH]c(C4=CCC(C(=O)N(C)C)CC4)c(-c4ccc5c(cnn5C)c4)c3c21 (racemic) [Example 63, 4-(1″-Butyryl-6-methyl-1-(1-methyl-1H-indazol-5-yl)-7-oxo-6,7-dihydro-3H-dispiro[dipyrrolo[2,3-b:3′,2′-d]pyridine-8,1′-cyclobutane-3′,4″-piperidin]-2-yl)-N,N-dimethylcyclohex-3-ene-1-carboxamide, trifluoroacetate salt] | ≤ 100 nM | > 2500 nM | > 2500 nM | ≤ 100 nM
7 | CN1C(=O)C2(CCN(CC3(CC#N)CC3)C2)c2c1cnc1[nH]c(-c3ccc4c(c3)OCC(=O)N4)c(-c3ccc4c(cnn4C)c3)c21 (racemic) [Example 67, 2-(1-((6-Methyl-1-(1-methyl-1H-indazol-5-yl)-7-oxo-2-(3-oxo-3,4-dihydro-2H-benzo[b][1,4]oxazin-7-yl)-6,7-dihydro-3H-spiro[dipyrrolo[2,3-b:3′,2′-d]pyridine-8,3′-pyrrolidin]-1′-yl)methyl)cyclopropyl)acetonitrile, trifluoroacetate salt] | ≤ 100 nM | > 2500 nM | > 2500 nM | ≤ 100 nM
8 | CN1C(=O)C2(CCN(CC3(CC#N)CC3)C2)c2c1cnc1[nH]c(-c3cnn4cccnc34)c(-c3ccc4c(cnn4C)c3)c21 (racemic) [Example 68, 2-(1-((6-Methyl-1-(1-methyl-1H-indazol-5-yl)-7-oxo-2-(pyrazolo[1,5-a]pyrimidin-3-yl)-6,7-dihydro-3H-spiro[dipyrrolo[2,3-b:3′,2′-d]pyridine-8,3′-pyrrolidin]-1′-yl)methyl)cyclopropyl)acetonitrile, trifluoroacetate salt] | ≤ 100 nM | > 2500 nM | > 2500 nM | ≤ 100 nM
9 | CN1C(=O)C2(CCN(CC3(CC#N)CC3)C2)c2c1cnc1[nH]c(-c3cnn(Cc4ccc(C#N)cc4)c3)c(-c3ccc4c(cnn4C)c3)c21 (racemic) [Example 69, 4-((4-(1′-((1-(Cyanomethyl)cyclopropyl)methyl)-6-methyl-1-(1-methyl-1H-indazol-5-yl)-7-oxo-6,7-dihydro-3H-spiro[dipyrrolo[2,3-b:3′,2′-d]pyridine-8,3′-pyrrolidin]-2-yl)-1H-pyrazol-1-yl)methyl)benzonitrile, trifluoroacetate salt] | ≤ 100 nM | 500 to 1250 nM | 500 to 1250 nM | ≤ 100 nM
10 | CN1C(=O)C2(CCN(CC3(CC#N)CC4(CCC4)C3)C2)c2c1cnc1[nH]c(-c3cnn(C)c3)c(-c3ccc4c(cnn4C)c3)c21 (racemic) [Example 70, 2-(2-((6-Methyl-1-(1-methyl-1H-indazol-5-yl)-2-(1-methyl-1H-pyrazol-4-yl)-7-oxo-6,7-dihydro-3H-spiro[dipyrrolo[2,3-b:3′,2′-d]pyridine-8,3′-pyrrolidin]-1′-yl)methyl)spiro[3.3]heptan-2-yl)acetonitrile] | ≤ 100 nM | > 2500 nM | > 2500 nM | ≤ 100 nM
